# Reference: PubChem BioAssay (NCI)
#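 Following 48 hours of exposure in 96-well plates, responses at five concentrations were used to interpolate endpoints linearly. TGI: total growth inhibition.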
# What was measured:
# Assay in all cases: NCI-60 cell line screen, 48 h
# BT-549 breast = system: BT-549 breast
# HT29 colon = system: HT29 colon
# OVCAR-8 ovarian = system: OVCAR-8 ovarian
# HCT-15 colon = system: HCT-15 colon
# ACHN renal = system: ACHN renal
# NCI-H460 lung = system: NCI-H460 lung
# NCI/ADR-RES ovarian = system: NCI/ADR-RES ovarian
# A549 NSCLC = system: A549 NSCLC
# COLO 205 colon = system: COLO 205 colon
# MCF7 breast = system: MCF7 breast
# HCT-116 colon = system: HCT-116 colon
# RPMI-8226 leukemia = system: RPMI-8226 leukemia
# MALME-3M melanoma = system: MALME-3M melanoma
# NCI-H23 lung = system: NCI-H23 lung
# OVCAR-3 ovarian = system: OVCAR-3 ovarian
# PC-3 prostate = system: PC-3 prostate
# SK-MEL-28 melanoma = system: SK-MEL-28 melanoma
# MDA-MB-231 breast = system: MDA-MB-231 breast
# MOLT-4 leukemia = system: MOLT-4 leukemia
# SNB-75 CNS = system: SNB-75 CNS
# UACC-257 melanoma = system: UACC-257 melanoma
# MDA-MB-435 = system: MDA-MB-435
# HL-60(TB) leukemia = system: HL-60(TB) leukemia
# UO-31 renal = system: UO-31 renal
# IGROV1 ovarian = system: IGROV1 ovarian
# M14 melanoma = system: M14 melanoma
# KM12 colon = system: KM12 colon
# SF-539 CNS = system: SF-539 CNS
# OVCAR-4 ovarian = system: OVCAR-4 ovarian
# SR leukemia = system: SR leukemia
# CAKI-1 renal = system: CAKI-1 renal
# SK-MEL-5 melanoma = system: SK-MEL-5 melanoma
# 786-0 renal = system: 786-0 renal
# K-562 leukemia = system: K-562 leukemia
# EKVX NSCLC = system: EKVX NSCLC
# OVCAR-5 ovarian = system: OVCAR-5 ovarian
# TK-10 renal = system: TK-10 renal
# U251 CNS = system: U251 CNS
# SF-295 CNS = system: SF-295 CNS
# SN12C renal = system: SN12C renal
# HCC-2998 colon = system: HCC-2998 colon
# NCI-H522 lung = system: NCI-H522 lung
# HS 578T breast = system: HS 578T breast
# MDA-N = system: MDA-N
# NCI-H226 lung = system: NCI-H226 lung
# SF-268 CNS = system: SF-268 CNS
# SNB-19 CNS = system: SNB-19 CNS
# CCRF-CEM leukemia = system: CCRF-CEM leukemia
# UACC-62 melanoma = system: UACC-62 melanoma
# SK-MEL-2 melanoma = system: SK-MEL-2 melanoma
# SK-OV-3 ovarian = system: SK-OV-3 ovarian
# A498 renal = system: A498 renal
# RXF 393 renal = system: RXF 393 renal
# SW-620 colon = system: SW-620 colon
# HOP-92 NSCLC = system: HOP-92 NSCLC
# DU-145 prostate = system: DU-145 prostate
# HOP-62 NSCLC = system: HOP-62 NSCLC
# T-47D breast = system: T-47D breast
# LOX IMVI melanoma = system: LOX IMVI melanoma
smiles,measurement,setting,value
Cc1c(S(=O)(=O)c2ccccc2)c(N)n(Cc2ccccc2)c1C,TGI,BT-549 breast,> 100 µM
same,TGI,HT29 colon,> 100 µM
same,TGI,OVCAR-8 ovarian,> 100 µM
same,TGI,HCT-15 colon,> 100 µM
same,TGI,ACHN renal,> 100 µM
same,TGI,NCI-H460 lung,> 100 µM
same,TGI,NCI/ADR-RES ovarian,> 100 µM
same,TGI,A549 NSCLC,> 100 µM
same,TGI,COLO 205 colon,> 100 µM
same,TGI,MCF7 breast,> 100 µM
same,TGI,HCT-116 colon,> 100 µM
same,TGI,RPMI-8226 leukemia,> 100 µM
same,TGI,MALME-3M melanoma,> 100 µM
same,TGI,NCI-H23 lung,> 100 µM
same,TGI,OVCAR-3 ovarian,> 100 µM
same,TGI,PC-3 prostate,> 100 µM
same,TGI,SK-MEL-28 melanoma,> 100 µM
same,TGI,MDA-MB-231 breast,> 100 µM
same,TGI,MOLT-4 leukemia,> 100 µM
same,TGI,SNB-75 CNS,> 100 µM
same,TGI,UACC-257 melanoma,> 100 µM
same,TGI,MDA-MB-435,> 100 µM
same,TGI,HL-60(TB) leukemia,> 100 µM
same,TGI,UO-31 renal,> 100 µM
same,TGI,IGROV1 ovarian,> 100 µM
same,TGI,M14 melanoma,> 100 µM
same,TGI,KM12 colon,> 100 µM
same,TGI,SF-539 CNS,> 100 µM
same,TGI,OVCAR-4 ovarian,> 100 µM
same,TGI,SR leukemia,> 100 µM
same,TGI,CAKI-1 renal,> 100 µM
same,TGI,SK-MEL-5 melanoma,> 100 µM
same,TGI,786-0 renal,> 100 µM
same,TGI,K-562 leukemia,> 100 µM
same,TGI,EKVX NSCLC,> 100 µM
same,TGI,OVCAR-5 ovarian,> 100 µM
same,TGI,TK-10 renal,> 100 µM
same,TGI,U251 CNS,> 100 µM
same,TGI,SF-295 CNS,> 100 µM
same,TGI,SN12C renal,> 100 µM
same,TGI,HCC-2998 colon,> 100 µM
same,TGI,NCI-H522 lung,> 100 µM
same,TGI,HS 578T breast,> 100 µM
same,TGI,MDA-N,> 100 µM
same,TGI,NCI-H226 lung,> 100 µM
same,TGI,SF-268 CNS,> 100 µM
same,TGI,SNB-19 CNS,> 100 µM
same,TGI,CCRF-CEM leukemia,> 100 µM
same,TGI,UACC-62 melanoma,> 100 µM
same,TGI,SK-MEL-2 melanoma,> 100 µM
same,TGI,SK-OV-3 ovarian,> 100 µM
same,TGI,A498 renal,> 100 µM
same,TGI,RXF 393 renal,> 100 µM
same,TGI,SW-620 colon,> 100 µM
same,TGI,HOP-92 NSCLC,> 100 µM
same,TGI,DU-145 prostate,> 100 µM
CC(C)(C)C(=O)C(CC(=O)c1ccccc1)C(=O)C(C)(C)C,TGI,HT29 colon,> 100 µM
same,TGI,OVCAR-8 ovarian,> 100 µM
same,TGI,HCT-15 colon,> 100 µM
same,TGI,ACHN renal,> 100 µM
same,TGI,NCI-H460 lung,> 100 µM
same,TGI,HOP-62 NSCLC,> 100 µM
same,TGI,NCI/ADR-RES ovarian,> 100 µM
same,TGI,A549 NSCLC,> 100 µM
same,TGI,COLO 205 colon,> 100 µM
same,TGI,MCF7 breast,> 100 µM
same,TGI,HCT-116 colon,> 100 µM
same,TGI,RPMI-8226 leukemia,> 100 µM
same,TGI,MALME-3M melanoma,> 100 µM
same,TGI,NCI-H23 lung,> 100 µM
same,TGI,OVCAR-3 ovarian,> 100 µM
same,TGI,PC-3 prostate,> 100 µM
same,TGI,SK-MEL-28 melanoma,> 100 µM
same,TGI,MDA-MB-231 breast,> 100 µM
same,TGI,MOLT-4 leukemia,> 100 µM
same,TGI,SNB-75 CNS,> 100 µM
same,TGI,UACC-257 melanoma,> 100 µM
same,TGI,MDA-MB-435,> 100 µM
same,TGI,HL-60(TB) leukemia,> 100 µM
same,TGI,UO-31 renal,> 100 µM
same,TGI,IGROV1 ovarian,> 100 µM
same,TGI,M14 melanoma,> 100 µM
same,TGI,KM12 colon,> 100 µM
same,TGI,SF-539 CNS,> 100 µM
same,TGI,OVCAR-4 ovarian,> 100 µM
same,TGI,CAKI-1 renal,> 100 µM
same,TGI,SK-MEL-5 melanoma,> 100 µM
same,TGI,786-0 renal,> 100 µM
same,TGI,K-562 leukemia,> 100 µM
same,TGI,EKVX NSCLC,> 100 µM
same,TGI,OVCAR-5 ovarian,> 100 µM
same,TGI,TK-10 renal,> 100 µM
same,TGI,U251 CNS,> 100 µM
same,TGI,SF-295 CNS,> 100 µM
same,TGI,SN12C renal,> 100 µM
same,TGI,HCC-2998 colon,> 100 µM
same,TGI,NCI-H522 lung,> 100 µM
same,TGI,HS 578T breast,> 100 µM
same,TGI,MDA-N,> 100 µM
same,TGI,NCI-H226 lung,> 100 µM
same,TGI,T-47D breast,> 100 µM
same,TGI,SF-268 CNS,> 100 µM
same,TGI,SNB-19 CNS,> 100 µM
same,TGI,CCRF-CEM leukemia,> 100 µM
same,TGI,SK-MEL-2 melanoma,> 100 µM
same,TGI,SK-OV-3 ovarian,> 100 µM
same,TGI,A498 renal,> 100 µM
same,TGI,SW-620 colon,> 100 µM
same,TGI,LOX IMVI melanoma,> 100 µM
same,TGI,HOP-92 NSCLC,> 100 µM
same,TGI,DU-145 prostate,> 100 µM
CCOc1ccc(N/C(=C(/C(Cl)=C(/Cl)NCCN)[N+](=O)[O-])n2nnc3ccccc32)cc1,TGI,BT-549 breast,> 100 µM
same,TGI,HT29 colon,> 100 µM
same,TGI,OVCAR-8 ovarian,30.4 µM
same,TGI,HCT-15 colon,38 µM
same,TGI,ACHN renal,43.8 µM
same,TGI,NCI-H460 lung,> 100 µM
same,TGI,HOP-62 NSCLC,> 100 µM
same,TGI,NCI/ADR-RES ovarian,> 100 µM
same,TGI,A549 NSCLC,> 100 µM
same,TGI,COLO 205 colon,32.4 µM
same,TGI,MCF7 breast,> 100 µM
same,TGI,HCT-116 colon,74.6 µM
same,TGI,RPMI-8226 leukemia,> 100 µM
same,TGI,MALME-3M melanoma,27.6 µM
same,TGI,NCI-H23 lung,> 100 µM
same,TGI,OVCAR-3 ovarian,63.3 µM
same,TGI,PC-3 prostate,> 100 µM
same,TGI,SK-MEL-28 melanoma,> 100 µM
same,TGI,MDA-MB-231 breast,> 100 µM
same,TGI,MOLT-4 leukemia,> 100 µM
same,TGI,SNB-75 CNS,> 100 µM
same,TGI,UACC-257 melanoma,> 100 µM
same,TGI,MDA-MB-435,> 100 µM
same,TGI,UO-31 renal,> 100 µM
same,TGI,M14 melanoma,> 100 µM
same,TGI,KM12 colon,> 100 µM
same,TGI,SF-539 CNS,41.9 µM
same,TGI,OVCAR-4 ovarian,> 100 µM
same,TGI,CAKI-1 renal,34.8 µM
same,TGI,786-0 renal,> 100 µM
same,TGI,K-562 leukemia,> 100 µM
same,TGI,EKVX NSCLC,> 100 µM
same,TGI,OVCAR-5 ovarian,> 100 µM
same,TGI,U251 CNS,> 100 µM
same,TGI,SF-295 CNS,> 100 µM
same,TGI,SN12C renal,> 100 µM
same,TGI,HCC-2998 colon,> 100 µM
same,TGI,HS 578T breast,98.2 µM
same,TGI,MDA-N,> 100 µM
same,TGI,NCI-H226 lung,> 100 µM
same,TGI,T-47D breast,> 100 µM
same,TGI,SF-268 CNS,34.5 µM
same,TGI,SNB-19 CNS,> 100 µM
same,TGI,CCRF-CEM leukemia,> 100 µM
same,TGI,UACC-62 melanoma,> 100 µM
same,TGI,SK-MEL-2 melanoma,> 100 µM
same,TGI,SK-OV-3 ovarian,> 100 µM
same,TGI,A498 renal,> 100 µM
same,TGI,SW-620 colon,21.6 µM
